Values quoted from earlier work as cited in patent publication US11259516B2, “Method and apparatus for capsular delivery to plants” (priority 2017, dated 2022).

What was measured:
Parameters in all cases: key: X indicates that the given herbicide is suitable for controlling the given weed
Conditions in all cases: cited from earlier work
Acacia spp (Wattles) = test system: Acacia spp (Wattles)
[1] = test system: Atalaya hemiglauca (Whitewood)
[2] = test system: Calotropis procera (Rubber bush)
[3] = test system: Cryptostegia grandiflora (Rubber vine)
[4] = test system: Eremophila mitchellii (False sandalwood)
Lantana camara (Lantana) = test system: Lantana camara (Lantana)
[5] = test system: Lycium ferocissium (African boxthom)
Melalauca spp = test system: Melalauca spp
Mimosa pigra (Mimosa) = test system: Mimosa pigra (Mimosa)
[6] = test system: Parkinsonia aculeata (Parkinsonia)
[7] = test system: Planchonia careya (Cocky apple)
[8] = test system: Vachellia famesiana (Mimosa bush)
[9] = test system: Vachellia nilotica (Prickly acacia)

Measured: suitability of herbicide for control of weed

CNC(=O)N(C)c1nnc(C(C)(C)C)s1 [Tebuthiuron]
X: Acacia spp (Wattles) | [1] | [2] | [3] | [4] | Lantana camara (Lantana) | [5] | Melalauca spp | Mimosa pigra (Mimosa) | [6] | [7] | [8] | [9]
